The values below come from US7569351B2 (Oncotherapy Science, Inc., priority 2000, dated 2009).

Data set [1] relates to p53AIP1. The data set is described as follows: p53AIP1 expression after apoptosis stimulators (Western blotting, RT-PCR). It is filed as cell-based, human. Conditions: MCF7 cells. The protocol:
FIG. 15 presents photographs showing the expression of p53AIP1 through different apoptotic pathways, which was detected by Western blotting (A) and semiquantitative RT-PCR (B) analyses. MCF7 cells were collected at 36 hr after STS damage and 48 hr after UV or TNFα damage for Western blotting analysis, or 24 hr after STS damage, and 48 hr after UV or TNFα damage for RT-PCR. Expression of β-actin or β2MG serves as a control.
Cells were plated 24 hr before apoptosis-inducing treatment, and grown to 60%-70% confluency at the time of treatment. To test whether the expression of p53AIP1 in response to apoptotic stresses, MCF7 (breast carcinoma) cells were continuously incubated with staurosporine or TNFα, or were treated with UV at given dosages (J/m^2) using a UV cross-linker (Stratagene). […] The cells (2×10^4 or more) were analyzed in a flow cytometer (FACScalibur; Becton Dickinson) to determine the percentage of sub-G1 nuclei in the cell population. […]
For RT-PCR analysis, total RNA was first isolated from cells using the RNeasy spin column kit (QIAGEN) according to the manufacturer's instructions. cDNAs were synthesized from 5 μg of total RNA using SuperScript Pre-amplification System (GIBCO-BRL). The exponential phase was determined for RT-PCR within 15 cycles to 30 cycles to allow semiquantitative comparisons among cDNAs derived from identical reactants. […]

The subject of data set [2] is p53AIP1. The data set is described as follows: Immunocytochemical staining of endogenous p53AIP1 in mitochondria. Type of data set: cell-based, human. Conditions: MCF7; STS 0.5 μM 24 hr, TNFα 10 ng/ml 48 hr. An excerpt: (§1) FIG. 17 presents photographs showing the expression of p53AIP1 protein in the mitochondria, and the function of p53AIP1 protein in apoptosis induced by UV or STS. […] Twenty-four hours after STS and UV damage or 48 hr after TNFα damage, p53AIP1 protein and mitochondria in the cells were stained with FITC-conjugated rabbit anti-p53AIP1 antibody and Mito Tracker Red (CMXRos), respectively. The nuclei was visualized by DAPI staining. […] MCF7 cells were transfected with AS or sense oligonucleotides (SE) (1 μM) using Lipofectin reagent (GIBCO-BRL) for 4 hr, and then the cells were damaged by UV irradiation (50 J/m^2). Thirty-six hours after transfection, p53AIP1 expression was evaluated by Western blotting.
Incubation times and radiation doses were as follows: for RT-PCR, STS treatment was performed for 24 hr and TNFα and UV, for 48 hr; for Western blotting, STS, for 36 hr and TNFα and UV, for 48 hr; for FACS and TUNEL assays, STS (0.5 μM) and UV (50 J/m^2) for 36 hr and TNFα (10 ng/ml), for 72 hr; and for immunocytochemical analysis, STS (0.5 μM) and UV (50 J/m^2), for 24 hr and TNFα (10 ng/ml) for 48 hr.

Data set [3] has as its system p21^Waf1. The data set is described as follows: Induction of p21Waf1 by DNA damage in NHDF (RT-PCR). Type of data set: cell-based, human. As to conditions: adriamycin 0.2 μg/ml. The procedure: (§2) Expression of the GAPDH gene was determined as a quantity control. p53AIP1 and p21/WAF1 expression induced by γ irradiation (IR) and adriamycin treatment (ADR) is analyzed.
(§3) DNA-damaging treatment was performed as follows.
(§4) Cells were inoculated 24 hr before treatment, and grown to 60% to 70% confluency. NHDF and SW480 cells were continuously treated with adriamycin (doxorubicin) at a concentration of 0.2 μg/ml or were treated with γ-ray irradiation at about 1 Gy/min (14 Gy).

The test system of data set [4] is p53AIP1. The data set is described as follows: Induction of endogenous p53AIP1 by DNA damage in NHDF (RT-PCR). It is filed as cell-based, human. Conditions: adriamycin 0.2 μg/ml. The procedure:
as §2, §3, §4

Data set [5] has as its system U373MG cells. The data set is described as follows: Antisense inhibition of p53-induced apoptosis (FACS). Type of data set: cell-based, human. As to conditions: 1 μM oligonucleotide 4 hr, then Ad-p53, 48 hr.
The subject of data set [6] is p53AIP1. The data set is described as follows: Antisense inhibition of p53AIP1 expression (RT-PCR). Type of data set: cell-based, human. As to conditions: U373MG, 1 μM oligonucleotide 4 hr, then Ad-p53, 48 hr.
For data set [7], the system named is mitochondrial ΔΨm. The data set is described as follows: Mitochondrial ΔΨm by Rhodamine 123 in HeLa mock parental cells. It is filed as cell-based, human. As to conditions: MOI 100 pfu/cell, 60 hr after infection. The procedure: (§5) The cells were labeled with Rhodamine 123 at 60 hr after infection, and fluorescence was analyzed by FACScan. The horizontal axis indicates 10^0 at left end, 10^4 at right end, and 10^2 at center, respectively.
(§6) Next, the mitochondrial ΔΨm itself was analyzed. Detection of mitochondrial membrane potential was performed as follows. […] Sixty hours after infection, adherent and floating cells were collected by trypisinization, and washed twice with cold PBS. Rhodamine 123 (10 nM) in PBS was added to the cells, and were incubated for 30 min at 37° C. Fluorescence was measured by flow cytometry.

In data set [8] the test system is p53AIP1. The data set is described as follows: Antisense inhibition of p53AIP1 expression in MCF7 (Western blotting). It is filed as cell-based, human. Conditions: MCF7, AS 1 μM, after UV irradiation, compared with sense oligonucleotide.
Description: as §1
(§7) Next, the intracellular localization of endogenous p53AIP1 during apoptosis through different-pathways was identified. In human breast carcinoma cells MCF7 that were not exposed to any apoptosis stimulator, the expression of p53AIP1 was not detected. […] No staining of p53AIP1 was observed after TNFα treatment (FIG. 17). To confirm the involvement of p53AIP1 in apoptotic processes, experiments using an antisense oligonucleotide (AS) corresponding to the p53AIP1 gene were performed. […] After 36 hr from the treatment, apoptotic cells were analyzed by FACS and TUNEL analysis.

Data set [9] relates to MCF7 cells. The data set is described as follows: Antisense effect on apoptosis in MCF7 (FACS sub-G1). It is filed as cell-based, human. As to conditions: MCF7, AS 1 μM. The protocol: MCF7 cells were transfected with AS or SE (1 μM) using Lipofectin reagent (GIBCO-BRL) for 4 hr, and treated with UV irradiation, STS or TNFα.
Cells were plated 24 hr before apoptosis-inducing treatment, and grown to 60%-70% confluency at the time of treatment. To test whether the expression of p53AIP1 in response to apoptotic stresses, MCF7 (breast carcinoma) cells were continuously incubated with staurosporine or TNFα, or were treated with UV at given dosages (J/m^2) using a UV cross-linker (Stratagene). Floating and adherent cells were collected, and subjected to analyses by Western blotting, FACS, and RT-PCR analysis. For FACS analysis, adherent and detached cells were combined and fixed with 75% ethanol at 4° C. After rinsed twice with PBS, cells were incubated at 37° C. for 30 min with 1 ml PBS containing boiled RNase. Cells were then stained in 1 ml PBS containing 10 μg of propidium iodide. The cells (2×10^4 or more) were analyzed in a flow cytometer (FACScalibur; Becton Dickinson) to determine the percentage of sub-G1 nuclei in the cell population. In situ terminal transferase-mediated dUTP nick end-labeling (TUNEL) was performed using Apoptag Direct (Oncor) according to the manufacturer's instructions.
as §7, with “performed. To inhibit endogenous p53AIP1 expression, antisense oligonucleotide (AS2: […]/SEQ ID NO: 30) and a control sense oligonucleotides (SE2: […]/SEQ ID NO: 31) were designed based on the sequence of the p53AIP1 gene, and then purified by HPLC.” for “performed.”

Data set [10] concerns mitochondrial ΔΨm. The data set is described as follows: Mitochondrial membrane potential by Mitotracker Red CMXRos. Conditions: 24 hr after transfection. Type of data set: cell-based. The procedure:
To evaluate the mitochondrial membrane potential, cells were incubated in culture media containing […] Mitotracker Red CMXRos (Molecular Probes) at 37° C. for 30 min, and then fixed to be labeled with a longer wavelength (579 nm to 599 nm) fluorescence emission.

Data set [11] deals with mitochondrial ΔΨm. The data set is described as follows: Mitochondrial ΔΨm by Rhodamine 123 in HeLa cells overexpressing bcl-2. Type of data set: cell-based, human. Conditions: both HeLa cell lines overexpressing bcl-2, 60 hr after infection. The protocol:
as §5, §6

For data set [12], the system named is T98G cells. The data set is described as follows: TUNEL analysis after transfection of expression vectors. Type of data set: cell-based, human. Conditions: harvested 48 hr after transfection. The protocol:
To investigate whether introduction of exogenous p53AIP1 could indeed induce apoptotic cell death, in situ terminal transferase-mediated dUTP nick end-labeling (TUNEL) analysis was performed. […] TUNEL analysis was performed using Apotag Direct ([…]) according to the manufacturer's instructions. […] DNA fragments were evaluated using the ApoAlert LM-PCR ladder assay kit (Clontech) according to the manufacturer's instructions.

Data set [13] deals with WTp53 cancer cell lines. The data set is described as follows: Anti-tumor effect in vitro, nine cancer cell lines containing wild-type p53. It is filed as cell-based, human. The protocol:
Apoptotic cells were analyzed by FACScan at 96 hr after infection.

Take `CN[C@@H]1C[C@H]2O[C@@](C)([C@@H]1OC)n1c3ccccc3c3c4c(c5c6ccccc6n2c5c31)C(=O)NC4` [STS, staurosporine]: the “expression of p53AIP1 during apoptotic induction” value in [1] was “increased significantly in a dose-dependent manner”. For the same molecule, the “staining of p53AIP1 in the mitochondria” value in data set [2] is given as “intense staining”.

Consider `COc1cccc2c1C(=O)c1c(O)c3c(c(O)c1C2=O)C[C@@](O)(C(=O)CO)C[C@@H]3O[C@H]1C[C@H](N)[C@H](O)[C@H](C)O1` [adriamycin, adriamycin (doxorubicin)], for which, in data set [3], the “time of maximum p21^Waf1 expression” value is 6 h. Further, in [4], the “time of maximum levels of p53AIP1” value was found to be 24 h.

With “GATCCCATCCAGGGGA (listed as DNA, chemistry not given here) [AS1]”, the “inhibition of the induction of p53-induced apoptosis” value in data set [5] is given as “significantly inhibited”. Also, in data set [6], the “inhibition of the induction of p53AIP1 expression” value is listed as “significantly inhibited”.

Consider “GGAGGCAGGTGAGGAG (listed as DNA, chemistry not given here) [SE1, reference compound]”, for which, in data set [5], the “inhibition of the induction of p53-induced apoptosis” value is “not”. Moreover, in data set [6], the “inhibition of the induction of p53AIP1 expression” value is reported as “not”.

“LacZ: exogenous LacZ expressed from Ad-LacZ, control [reference compound]”: the “down-regulation of mitochondrial ΔΨm” value in data set [7] is “did not”.

On to “TCCCCTGGATGGGATC (chemistry not given here) [AS2]”, for which the “reduction in the p53AIP1 expression level” value in data set [8] worked out at 50%. The “inhibition of cell death induced by TNFα” value in data set [9] (TNFα 10 ng/ml) is reported as “did not inhibit”. The “apoptotic (sub-G1) cell population, second pair” value in data set [9] (reduced from 33%, after UV irradiation) stood at 16%. In [9] (reduced from 37%, stimulus not clearly printed), the “apoptotic (sub-G1) cell population, first pair” value was 28%.

In the case of TNFα, in [2], the “staining of p53AIP1 in the mitochondria” value is reported as “No staining”.

B1: p53AIP1α: p53-dependent apoptosis-associated protein, 124 amino acids, SEQ ID NO: 2, expressed from vector (protein, listed as Homo sapiens)
chain: MGSSSEASFRSAQASCSGARRQGLGRGDQNLSVMPPNGRAQTHTPGWVSDPLVLGAQVHGGCRGIEALSVSSGSWSSATVWILTGLGLGLSRPFLPGATVLRDRPLGSAFELSYDQKKAPLRLQ
As to B1, the “dissipation of mitochondrial ΔΨm” value in data set [10] was “Almost all cells”. The “down-regulation of mitochondrial ΔΨm with bcl-2 overexpression” value in data set [11] is listed as “blocked”. Besides, the “transfected T98G cells undergoing apoptosis (TUNEL)” value in data set [12] is listed as “more than half”. Besides, the “down-regulation of mitochondrial ΔΨm” value in data set [7] was “down-regulated”.

B2: p53AIP1: p53-regulated Apoptosis Inducing Protein 1, exogenous expression by adenovirus-mediated gene transfer (protein)
chain: MGSSSEASFRSAQASCSGARRQGLGRGDQNLSVMPPNGRAQTHTPGWVSDPLVLGAQVHGGCRGIEALSVSSGSWSSATVWILTGLGLGLSRPFLPGATVLRDRPLGSAFELSYDQKKAPLRLQ
modifications: left off: small tags and cut ends
notes: p53-regulated Apoptosis Inducing Protein 1, exogenous expression by adenovirus-mediated gene transfer
Turning to B2, the “induction of apoptosis in WTp53 cancer cell lines” value in [13] (nine lines tested, adenovirus-mediated gene transfer, 96 hr) is on record as “effectively induced apoptosis in six of the WTp53 cancer cell lines”. The “cell killing compared with p53” value in [13] (the six responsive WTp53 lines) is “four of the six cell lines were killed more effectively”.
